Test results taken from ChEMBL document CHEMBL1148252, “Orally bioavailable small molecule ketoamide-based inhibitors of cathepsin K” (Bioorg Med Chem Lett, 2004).
≈ marks a conversion by molar mass, not a printed value.

Columns and labels:
[1] = Tested for the total clearance of the compound; assay type: ADME, organism-based; conditions: in vivo
[2] = Tested for equilibrium solubility in fasted state-simulated intestinal fluid at pH 6.8; assay type: ADME; conditions: fasted state-simulated intestinal fluid (FS-SIF)
[3] = Partition coefficient (logP); assay type: physicochemical; conditions: octanol/water
[4] = Oral bioavailability in rat (male Wistar); assay type: ADME, organism-based; conditions: in vivo
[5] = Apparent permeability coefficient (Papp) for apical to basolateral flux was determined in MadinDarby Canine Kidney cells; assay type: ADME, Canis lupus familiaris; conditions: dog, MDCK
[6] = Steady state volume of distribution (Vsss) was determined; assay type: ADME, organism-based; conditions: in vivo; read-out: Vsss
[7] = Tested for iv terminal half-life dosed as a solution in male Han Wistar rats; assay type: ADME, organism-based; conditions: rat, in vivo

Row | Compound | clearance [1] [mL/min/kg] | solubility thermodynamic [2] [µg/mL] | logP [3] | bioavailability [4] [%] | Papp A→B [5] [×10⁻⁶ cm/s] | Vd [6] [L/kg] | half-life [7] [h]
1 | CCCC[C@H](NC(=O)OC(C(C)C)C(C)C)C(=O)C(=O)NCc1ccccn1 | 5.2 | 28 (≈ 71.5 µM) | – | 10 | 51 | 0.24 | 1.28
2 | CNC(=O)NCCCC[C@H](NC(=O)OC(C(C)C)C(C)C)C(=O)C(=O)N[C@H](C)c1ccccc1 | 24 | 32 (≈ 67.1 µM) | 5.5 | 10 | – | 1.5 | 4.33
3 | CCCC[C@H](NC(=O)OC(C(C)C)C(C)C)C(=O)C(=O)N[C@H](C)c1ccccc1 | 8.7 | 12 (≈ 29.7 µM) | 7.3 | 3.1 | 5.7 | 1.9 | –
4 | CCCC[C@H](NC(=O)OC(C(C)C)C(C)C)C(=O)C(=O)N[C@H]1CCCNC1=O | 44 | 350 (≈ 880 µM) | 4.4 | 20 | 31 | 1.6 | 3.67

The remaining lines, values ahead:

Row | clearance [1] [mL/min/kg] | solubility thermodynamic [2] [µg/mL] | logP [3] | bioavailability [4] [%] | Papp A→B [5] [×10⁻⁶ cm/s] | Vd [6] [L/kg] | half-life [7] [h] | Compound
5 | 33 | 150 (≈ 392 µM) | 3.4 | 16 | 51 | 0.98 | 0.35 | CCCC[C@H](NC(=O)OC(C(C)C)C(C)C)C(=O)C(=O)NCc1nnco1
6 | 7.1 | 62 (≈ 158 µM) | – | 5.2 | – | 0.09 | 4 | CCCC[C@H](NC(=O)OC(C(C)C)C(C)C)C(=O)C(=O)NCc1ccncc1
7 | 29 | 63 (≈ 165 µM) | 5 | 32 | 41 | 1.2 | 0.867 | CCCC[C@H](NC(=O)OC(C(C)C)C(C)C)C(=O)C(=O)NCc1ccno1
8 | 28 | 51 (≈ 128 µM) | 5.3 | 55 | 48 | 1.3 | 2.5 | CCCC[C@H](NC(=O)OC(C(C)C)C(C)C)C(=O)C(=O)NCc1cncs1
